Reference: patent US20250213516A1, “Prophylactic Methods For Treating ALS” (BioJiva LLC, priority 2022, published 2025)
“Also recorded” adds a separate entry of the source.

Assays:
[1] = test system: patients in the incipient stage of ALS; experiment: Clinical study, ALSFRS-R scoring of patients in the incipient stage of ALS; format: in vivo, human; settings: for patients showing a better rate of decline (cut-off −11 change from baseline in ALSFRS-R): incipient stage, scored at 48 weeks
Text: This rating scale evaluated 12 different components on a 0 (worse) to 4 (best) scale where the components are speech, salivation, swallowing, handwriting, […], food handling, dressing and hygiene, turning in bed, […], climbing stairs, dyspnea, orthopnea, and respiratory insufficiency. As used herein, patients diagnosed with ALS are first evaluated to determine their natural history which measures the extent of loss of muscular functional due to the disease prior to initiation of therapy.
In this example, 41 patients diagnosed with ALS were tested to ascertain their natural history. Of these 41 patients, 23 scored above 38 points in the ALSFRS-R scoring test and were assigned as having incipient ALS. […] Each cohort received three 1 gram pills t.i.d. (“.three times a day”) at breakfast, lunch and dinner for a total of 9 pills.
After 24 weeks, each patient in each cohort were retested using the ALSFRS-R scoring test. The scores were then averaged for each cohort and the results are found in FIG. 1.
Each cohort received three 1 gram pills t.i.d. (“.three times a day”) at breakfast, lunch and dinner for a total of 9 pills.
After 48 weeks, each patient in each cohort were retested using the ALSFRS-R scoring test. The scores were then averaged.

[2] = test system: patients in the accelerated stage of ALS; experiment: Clinical study, ALSFRS-R scoring of patients in the accelerated stage of ALS; format: in vivo, human; settings: 9 g/day ethyl ester vs placebo, 24 weeks, FIG. 2
Text: As used herein, the term “accelerated stage of ALS” refers to patients whose diseases progression has evidenced a more substantial loss of muscular functionality. For the purposes of this application, such is identified as having a natural history score of 37 or less.
In this example, the same 41 patients diagnosed with ALS used in Comparative Example 1 were used. […] Each cohort received three 1 gram pills t.i.d. at breakfast, lunch and dinner for a total of 9 pills.
After 24 weeks, each patient in each cohort were retested using the ALSFRS-R scoring test. The scores were then averaged for each cohort and the results are found in FIG. 2.

inflammation model = experiment: Inflammation model
[3] = average diet, about 14 grams linoleic acid per day; cited from earlier work

## [2H]C([2H])(/C=C\CCCCC)/C=C\CCCCCCCC(=O)OCC
[1]; incipient stage ALS, about 9 g/day ethyl ester (8.64 g acid) vs placebo, 24 weeks, FIG. 1
  change in ALSFRS-R scores (loss of functionality), cohort average: do not evidence a significant change; also recorded: minimal loss of functionality
[2]
  loss of muscular functionality (ALSFRS-R, cohort average): substantially less loss of muscular functionality

## [2H]C([2H])(/C=C\CCCCC)/C=C\C([2H])([2H])/C=C\C([2H])([2H])/C=C\CCCC(=O)O [7,7,10,10,13,13-D6-arachidonic acid]
Inflammation model
  activity relative to 13,13-D2-arachidonic acid: a little more than twice as active

## [2H]C([2H])(/C=C\CCCCC)/C=C\CCCCCCCC(=O)O [11,11-D2-linoleic acid]
[1]; placebo for 24 weeks, then 8.64 g/day for 24 weeks
  patients showing a better rate of decline (cut-off −11 change from baseline in ALSFRS-R): 40%
[1]; treated with 8.64 g/day for 48 weeks
  patients showing a better rate of decline (cut-off −11 change from baseline in ALSFRS-R): 70%

## CCCCC/C=C\C/C=C\CCCCCCCC(=O)O [linoleic acid]
[3]
  portion of linoleic acid consumed hepatically converted to arachidonic acid: about 10%
